In PMC4076047 (Nature chemical biology, 2014):
Structures can show the parent of a compound that is named as a salt.

Molecular target: Vps35 (retromer core complex Vps35–Vps29–Vps26) (Homo sapiens, UniProt Q96QK1+Q9UBQ0)
Experiment: microscale thermophoresis
Type: binding

N=C(N)SCc1ccc(CSC(=N)N)s1 [compound 1, thiophene-2,5-diylbis(methylene) dicarbamimidothioate dihydrochloride]
Kd: ~5 µM
